Values of other authors, collected in patent US11859165B2, “Open-top microfluidic device with structural anchors” (EMULATE, INC., priority 2015, dated 2024).

System: cell monolayers with tight junctions
Details: passive paracellular diffusion across cell monolayers; value reported to be indicative of well-established monolayers

- Permeability (Papp) for LY: 0.5 to 1.2 ×10⁻⁶ cm/s
Substance: Lucifer Yellow
